Test results reported in paper PMC10604720, “Unraveling the Mechanism of Epichaperome Modulation by Zelavespib: Biochemical Insights on Target Occupancy and Extended Residence Time at the Site of Action” (Biomedicines, 2023).

Legend:
[1] = Biodistribution / PET pharmacokinetics of [124I]-zelavespib in MDA-MB-468 tumor-bearing mice (data of ref 32, refitted to exponential decay); assay type: in vivo, mouse
Description: Iodine-124 is a ‘non-residualizing’ isotope (i.e., free iodine-124 washes out from cells), and therefore, data derived from positron emission tomography imaging of MDA-MB-468-bearing mice that were administered a tracer amount of [^124I]-PU-AD can be used to determine real-time zelavespib concentrations delivered to tumors. Because positron emission tomography provides information on radioactivity and not molar concentrations, radioactivity data from Pillarsetty et al. were transformed into tumor concentrations to calculate the time-dependent zelavespib concentrations in tumors for an administered dose of 50 mg/kg. The drug concentration (in μM) in the tumor water space, [Drugtumor], at the time t post-administration is therefore: [Drugtumor]t=Drugdose·[Atumor]t/100%·1/W·1×10^6/MW µM where Drugdose is the administered drug dose (in mg), [Atumor]t is the activity concentration (in % injected dose per milliliter, %ID/mL) of the surrogate radiotracer, W is the water space of the tissue (in mL/g), MW is the molecular weight of the drug (i.e., zelavespib), and the factor 1 × 10^6 converts the concentration to μM. For the drug zelavespib and the surrogate radiotracer […] co-injected in a ratio of ~1 to 10,000, the drug itself is essentially the only significant form of the drug–surrogate combination in the tumor. Thus, for a co-administered dose of zelavespib (zelavespibdose in mg) and a tracer amount of [^124I]-PU-AD, the drug concentration in the tumor water space (using an average water space, W = 0.8 mL/g, and the molecular weight MW = 512) is: [Zelavespibtumor]t=Zelavespibdose · [Atumor]t/100%·2.44×10^3 µM
To study the zelavespib–epichaperome interaction in vivo, we selected, for simplicity, an epichaperome-positive tumor model (e.g., subcutaneously xenografted MDA-MB-468 tumors in mice). Using whole-body PET imaging after the injection of ^124I-labeled zelavespib, Pillarsetty et al. reported drug presence in MDA-MB-468 tumors up to 120 h post-single dose administration (~T1/2 = 60 h). Conversely, zelavespib was no longer observed in non-disease, non-metabolizing tissues after ~8 h, clearing rapidly from plasma, paralleled by a similar rapid clearance from normal tissues (i.e., chaperone-positive but epichaperome-negative). In these tumors, a clear relationship between tumor retention, pharmacodynamic effects, and anti-tumor activity was observed, supporting the notion that zelavespib was in residence with its target over the time it resided in these tumors.
These values are very much in agreement with those reported for zelavespib in human patients. […] Contrasting plasma and normal tissues and organs, the distribution of zelavespib in tumors was best fitted using a bi-exponential model. […] The first phase thus reflects the clearance of systemic agent, while the second is attributable to specific tumor retention.
Figure 1 Biodistribution of zelavespib in MDA-MB-468 tumor-bearing mice. (a) Biodistribution of [^124I]-Zelavespib in MDA-MB-468 tumors, organs, tissues, and plasma as per ref. [32]. Data are presented as means ± s.d., five mice per time point. Curves for blood, lung, heart, muscle, bone, and brain were fitted using a one-phase decay equation, and kinetics of zelavespib clearance were determined. Tumor curve was fitted to a two-phase exponential decay. k, kfast, and kslow are the rate constants. Half-life (T1/2) is computed as ln(2)/k. […] (b) Illustrative schematic showing the distinct binding kinetics of zelavespib to epichaperomes (slow off-rate) and to chaperone assemblies (fast off-rate). The tumor pharmacokinetics profile recorded in the Phase 2 interval may represent a direct reflection of the in vivo kinetics of target–drug unbinding. koff, kinetic rate constant for dissociation of an epichaperome-zelavespib assembly. Rt, retention time. […]

[2] = parameters: method as in PMID 31668946; conditions: whole-body PET imaging, mice; cited from earlier work
[3] = MDA-MB-468 tumor-bearing mice, one-phase exponential decay fit of data of ref 32
[4] = MDA-MB-468 tumor, bi-exponential fit, Phase 1: 0 to 8 h, data of ref 32
[5] = MDA-MB-468 tumor, bi-exponential fit, slow terminal clearance phase, data of ref 32
[6] = one-phase decay fit of data of ref 32

SMILES: CC(C)NCCCn1c(Sc2cc3c(cc2[124I])OCO3)nc2c(N)ncnc21 [[^124I]-zelavespib]
- half-life (T1/2), bone [1, 3]: 2.844 h
- half-life (T1/2), brain [1, 3]: 2.655 h
- half-life (T1/2), heart [1, 3]: 3.102 h
- half-life (T1/2), lung [1, 3]: 3.367 h
- half-life (T1/2), muscle [1, 3]: 5.034 h
- half-life (T1/2), plasma/blood [1, 3]: 4.380 h
- tumor Phase 1 T1/2 [1, 4]: 2.876 h
- tumor Phase 1 rate constant k (kfast) [1, 4]: 0.2410 h⁻¹
- tumor Phase 2 T1/2 [1, 5]: 46.80 h
- tumor Phase 2 rate constant k (kslow) [1, 5]: 0.0148 h⁻¹
- clearance rate constant k, blood [1, 6]: 0.1583 h⁻¹
- clearance rate constant k, bone [1, 6]: 0.2437 h⁻¹
- clearance rate constant k, brain [1, 6]: 0.2611 h⁻¹
- clearance rate constant k, heart [1, 6]: 0.2234 h⁻¹
- clearance rate constant k, lung [1, 6]: 0.2059 h⁻¹
- clearance rate constant k, muscle [1, 6]: 0.1377 h⁻¹
- T1/2 in MDA-MB-468 tumors [2]: ~60 h
- drug presence in MDA-MB-468 tumors, time post-single dose administration [2]: up to 120 h
